# Measurements as given in ChEMBL document CHEMBL1201861, “Genomics of Drug Sensitity in Cancer screening data, Wellcome Trust Sanger Institute”.
# Tests used:
# Assay in all cases: cells
# [1] = tested on: HD-MY-Z; format: functional, cell-based, Homo sapiens; conditions: Homo sapiens, HD-MY-Z;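 also: growth inhibition of HD-MY-Z cells, read out with a cell viability assay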
# Description: SANGER: Inhibition of human HD-MY-Z cell growth in a cell viability assay.
# [2] = tested on: HAL-01; format: functional, cell-based, Homo sapiens; conditions: Homo sapiens, HAL-01;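 also: growth inhibition of human HAL-01 cells, read out with a cell viability assay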
# Description: SANGER: Inhibition of human HAL-01 cell growth in a cell viability assay.
# [3] = tested on: LXF-289 cell line; format: functional, cell-based; conditions: Homo sapiens
# Description: SANGER: Inhibition of human LXF-289 cell growth in a cell viability assay.
# [4] = tested on: ALL-PO; format: functional, cell-based, Homo sapiens; conditions: Homo sapiens, ALL-PO;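 also: growth inhibition of ALL-PO cells, read out by a cell viability assay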
# Description: SANGER: Inhibition of human ALL-PO cell growth in a cell viability assay.
# [5] = tested on: NKM-1; format: functional, cell-based, Homo sapiens; conditions: Homo sapiens, NKM-1;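 also: growth inhibition of NKM-1 cells, read out with a cell viability assay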
# Description: SANGER: Inhibition of human NKM-1 cell growth in a cell viability assay.
# [6] = tested on: OVCAR-4; format: functional, cell-based, Homo sapiens; conditions: Homo sapiens, OVCAR-4;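 also: growth inhibition of human OVCAR-4 cells, measured with a cell viability assay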
# Description: SANGER: Inhibition of human OVCAR-4 cell growth in a cell viability assay.
# [7] = tested on: EW-16; format: functional, cell-based, Homo sapiens; conditions: Homo sapiens, EW-16;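 also: growth inhibition of human EW-16 cells, read out as cell viability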
# Description: SANGER: Inhibition of human EW-16 cell growth in a cell viability assay.
# [8] = tested on: GI-ME-N; format: functional, cell-based, Homo sapiens; conditions: Homo sapiens, GI-ME-N;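 also: growth inhibition of human GI-ME-N cells, read out with a cell viability assay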
# Description: SANGER: Inhibition of human GI-ME-N cell growth in a cell viability assay.
# [9] = tested on: NCI-H23; format: functional, cell-based, Homo sapiens; conditions: Homo sapiens, NCI-H23;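 also: cell viability assay measuring growth inhibition of NCI-H23 cells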
# Description: SANGER: Inhibition of human NCI-H23 cell growth in a cell viability assay.
# [10] = tested on: SBC-1; format: functional, cell-based, Homo sapiens; conditions: Homo sapiens, SBC-1;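 also: cell viability assay measuring growth inhibition of the SBC-1 cell line, IC50 being the concentration that halves growth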
# Description: SANGER: Inhibition of human SBC-1 cell growth in a cell viability assay.
# [11] = tested on: LNCaP-Clone-FGC; format: functional, cell-based, Homo sapiens; conditions: Homo sapiens, LNCaP-Clone-FGC
# Description: SANGER: Inhibition of human LNCaP-Clone-FGC cell growth in a cell viability assay.
# [12] = tested on: NCI-H1092; format: functional, cell-based, Homo sapiens; conditions: Homo sapiens, NCI-H1092;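 also: cell growth inhibition measured with a cell viability assay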
# Description: SANGER: Inhibition of human NCI-H1092 cell growth in a cell viability assay.
# [13] = tested on: NCI-H1648; format: functional, cell-based, Homo sapiens; conditions: Homo sapiens, NCI-H1648;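 also: cell viability assay measuring inhibition of NCI-H1648 cell growth, from the Sanger screening data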
# Description: SANGER: Inhibition of human NCI-H1648 cell growth in a cell viability assay.
# [14] = tested on: NB10; format: functional, cell-based, Homo sapiens; conditions: Homo sapiens, NB10;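 also: growth inhibition of NB10 cells, read out by a cell viability assay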
# Description: SANGER: Inhibition of human NB10 cell growth in a cell viability assay.
# [15] = tested on: C8166; format: functional, cell-based, Homo sapiens; conditions: Homo sapiens, C8166;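 also: growth inhibition of human C8166 cells measured by a cell viability assay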
# Description: SANGER: Inhibition of human C8166 cell growth in a cell viability assay.
# [16] = tested on: GOTO; format: functional, cell-based, Homo sapiens; conditions: Homo sapiens, GOTO;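 also: growth inhibition of GOTO cells, read out by a cell viability assay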
# Description: SANGER: Inhibition of human GOTO cell growth in a cell viability assay.
# [17] = tested on: no-11; format: functional, cell-based, Homo sapiens; conditions: Homo sapiens;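 also: growth inhibition of human NO-11 cells, read out with a cell viability assay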
# Description: SANGER: Inhibition of human no-11 cell growth in a cell viability assay.
# [18] = tested on: COLO-800; format: functional, cell-based, Homo sapiens; conditions: Homo sapiens, COLO-800;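 also: growth inhibition of COLO-800 cells, read out with a cell viability assay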
# Description: SANGER: Inhibition of human COLO-800 cell growth in a cell viability assay.
# [19] = tested on: KURAMOCHI; format: functional, cell-based, Homo sapiens; conditions: Homo sapiens, KURAMOCHI;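 also: growth inhibition of KURAMOCHI cells, read out with a cell viability assay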
# Description: SANGER: Inhibition of human KURAMOCHI cell growth in a cell viability assay.
# [20] = tested on: HEL; format: functional, cell-based, Homo sapiens; conditions: Homo sapiens, HEL;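 also: growth inhibition of HEL cells, read out with a cell viability assay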
# Description: SANGER: Inhibition of human HEL cell growth in a cell viability assay.
# [21] = tested on: TGW; format: functional, cell-based, Homo sapiens; conditions: Homo sapiens, TGW;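 also: growth inhibition of human TGW cells, read out with a cell viability assay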
# Description: SANGER: Inhibition of human TGW cell growth in a cell viability assay.
# [22] = tested on: GT3TKB; format: functional, cell-based, Homo sapiens; conditions: Homo sapiens, GT3TKB;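 also: growth inhibition of the cell line, read out with a cell viability assay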
# Description: SANGER: Inhibition of human GT3TKB cell growth in a cell viability assay.
# [23] = tested on: RPMI-8226; format: functional, cell-based, Homo sapiens; conditions: Homo sapiens, RPMI-8226
# Description: SANGER: Inhibition of human RPMI-8226 cell growth in a cell viability assay.
# [24] = tested on: IST-SL1; format: functional, cell-based, Homo sapiens; conditions: Homo sapiens, IST-SL1;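 also: growth inhibition of human IST-SL1 cells, read out with a cell viability assay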
# Description: SANGER: Inhibition of human IST-SL1 cell growth in a cell viability assay.
# [25] = tested on: MOLT-16; format: functional, cell-based, Homo sapiens; conditions: Homo sapiens, MOLT-16;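 also: growth inhibition of human MOLT-16 cells, read out with a cell viability assay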
# Description: SANGER: Inhibition of human MOLT-16 cell growth in a cell viability assay.
# [26] = tested on: TE-8; format: functional, cell-based, Homo sapiens; conditions: Homo sapiens, TE-8;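 also: growth inhibition of TE-8 cells, measured with a cell viability readout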
# Description: SANGER: Inhibition of human TE-8 cell growth in a cell viability assay.
# [27] = tested on: COLO-829; format: functional, cell-based, Homo sapiens; conditions: Homo sapiens, COLO-829
# Description: SANGER: Inhibition of human COLO-829 cell growth in a cell viability assay.
# [28] = tested on: ATN-1; format: functional, cell-based, Homo sapiens; conditions: Homo sapiens, ATN-1;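 also: growth inhibition of human ATN-1 cells, read out with a cell viability assay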
# Description: SANGER: Inhibition of human ATN-1 cell growth in a cell viability assay.
# [29] = tested on: SK-UT-1; format: functional, cell-based, Homo sapiens; conditions: Homo sapiens, SK-UT-1;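 also: growth inhibition of SK-UT-1 cells, measured by a cell viability assay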
# Description: SANGER: Inhibition of human SK-UT-1 cell growth in a cell viability assay.
# [30] = tested on: NCI-H1838; format: functional, cell-based, Homo sapiens; conditions: Homo sapiens, NCI-H1838;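 also: growth inhibition of NCI-H1838 cells, determined with a cell viability readout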
# Description: SANGER: Inhibition of human NCI-H1838 cell growth in a cell viability assay.
# [31] = tested on: NCI-H1581; format: functional, cell-based, Homo sapiens; conditions: Homo sapiens, NCI-H1581;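 also: cell growth inhibition read out by a viability assay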
# Description: SANGER: Inhibition of human NCI-H1581 cell growth in a cell viability assay.
# [32] = tested on: KS-1; format: functional, cell-based; conditions: Homo sapiens;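 also: growth inhibition of KS-1 cells, read out with a cell viability assay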
# Description: SANGER: Inhibition of human KS-1 cell growth in a cell viability assay.
# [33] = tested on: KM-H2; format: functional, cell-based, Homo sapiens; conditions: Homo sapiens, KM-H2;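 also: growth inhibition of KM-H2 cells, read out by a cell viability assay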
# Description: SANGER: Inhibition of human KM-H2 cell growth in a cell viability assay.
# [34] = tested on: ONS-76; format: functional, cell-based, Homo sapiens; conditions: Homo sapiens, ONS-76;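 also: growth inhibition of human ONS-76 cells, read out with a cell viability assay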
# Description: SANGER: Inhibition of human ONS-76 cell growth in a cell viability assay.
# [35] = tested on: DB; format: functional, cell-based, Homo sapiens; conditions: Homo sapiens, DB
# Description: SANGER: Inhibition of human DB cell growth in a cell viability assay.
# [36] = tested on: KALS-1; format: functional, cell-based, Homo sapiens; conditions: Homo sapiens, KALS-1;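 also: growth inhibition of KALS-1 cells, determined with a cell viability assay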
# Description: SANGER: Inhibition of human KALS-1 cell growth in a cell viability assay.
# [37] = tested on: LAN-6; format: functional, cell-based, Homo sapiens; conditions: Homo sapiens, LAN-6;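 also: growth inhibition of LAN-6 cells, determined with a cell viability assay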
# Description: SANGER: Inhibition of human LAN-6 cell growth in a cell viability assay.
# [38] = tested on: MN-60; format: functional, cell-based, Homo sapiens; conditions: Homo sapiens, MN-60;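 also: growth inhibition of the MN-60 cell line, determined with a cell viability assay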
# Description: SANGER: Inhibition of human MN-60 cell growth in a cell viability assay.
# [39] = tested on: CTB-1; format: functional, cell-based, Homo sapiens; conditions: Homo sapiens, CTB-1
# Description: SANGER: Inhibition of human CTB-1 cell growth in a cell viability assay.
# [40] = tested on: LC-2-ad; format: functional, cell-based, Homo sapiens; conditions: Homo sapiens, LC-2-ad;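 also: growth inhibition of human LC-2-ad cells, read out with a cell viability assay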
# Description: SANGER: Inhibition of human LC-2-ad cell growth in a cell viability assay.
# [41] = tested on: NCI-H1395; format: functional, cell-based, Homo sapiens; conditions: Homo sapiens, NCI-H1395;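 also: cell viability assay read-out quantifying reduced proliferation of human NCI-H1395 cells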
# Description: SANGER: Inhibition of human NCI-H1395 cell growth in a cell viability assay.
# [42] = tested on: NCI-H69; format: functional, cell-based, Homo sapiens; conditions: Homo sapiens, NCI-H69;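 also: growth inhibition of the cell line, read out with a cell viability assay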
# Description: SANGER: Inhibition of human NCI-H69 cell growth in a cell viability assay.
# [43] = tested on: RCC10RGB; format: functional, cell-based, Homo sapiens; conditions: Homo sapiens, RCC10RGB;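 also: growth inhibition of human RCC10RGB cells, read out by a cell viability assay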
# Description: SANGER: Inhibition of human RCC10RGB cell growth in a cell viability assay.
# [44] = tested on: RS4-11; format: functional, cell-based, Homo sapiens; conditions: Homo sapiens, RS4-11;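 also: growth inhibition of RS4-11 cells, read out by a cell viability assay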
# Description: SANGER: Inhibition of human RS4-11 cell growth in a cell viability assay.
# [45] = tested on: SK-MEL-1; format: functional, cell-based, Homo sapiens; conditions: Homo sapiens, SK-MEL-1;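 also: growth inhibition of human SK-MEL-1 cells, read out by a cell viability assay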
# Description: SANGER: Inhibition of human SK-MEL-1 cell growth in a cell viability assay.
# [46] = tested on: NB5; format: functional, cell-based, Homo sapiens; conditions: Homo sapiens, NB5;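 also: growth inhibition of NB5 cells, read out as cell viability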
# Description: SANGER: Inhibition of human NB5 cell growth in a cell viability assay.
# [47] = tested on: Lu-65; format: functional, cell-based, Homo sapiens; conditions: Homo sapiens, Lu-65;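 also: growth inhibition of Lu-65 cancer cells, read out by a cell viability assay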
# Description: SANGER: Inhibition of human LU-65 cell growth in a cell viability assay.
# [48] = tested on: NMC-G1; format: functional, cell-based, Homo sapiens; conditions: Homo sapiens, NMC-G1;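 also: growth inhibition of the NMC-G1 cell line, measured with a cell viability read-out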
# Description: SANGER: Inhibition of human NMC-G1 cell growth in a cell viability assay.
compound,measurement,setting,value
COc1cc(N2CCC(N3CCN(C)CC3)CC2)ccc1Nc1ncc(Cl)c(Nc2ccccc2S(=O)(=O)C(C)C)n1 [TAE-684],IC50,[1],> 2000 nM
same,IC50,[2],1150 nM
same,IC50,[3],1030 nM
same,IC50,[4],245 nM
same,IC50,[5],1690 nM
same,IC50,[6],406 nM
same,IC50,[7],106 nM
same,IC50,[8],1250 nM
same,IC50,[9],> 2000 nM
same,IC50,[10],> 2000 nM
same,IC50,[11],> 2000 nM
same,IC50,[12],> 2000 nM
same,IC50,[13],279 nM
same,IC50,[14],1570 nM
same,IC50,[15],> 2000 nM
same,IC50,[16],> 2000 nM
same,IC50,[17],> 2000 nM
same,IC50,[18],767 nM
same,IC50,[19],1700 nM
same,IC50,[20],1150 nM
same,IC50,[21],859 nM
same,IC50,[22],> 2000 nM
same,IC50,[23],635 nM
same,IC50,[24],> 2000 nM
same,IC50,[25],876 nM
same,IC50,[26],429 nM
same,IC50,[27],> 2000 nM
same,IC50,[28],333 nM
same,IC50,[29],> 2000 nM
same,IC50,[30],> 2000 nM
same,IC50,[31],> 2000 nM
same,IC50,[32],193 nM
same,IC50,[33],> 2000 nM
same,IC50,[34],> 2000 nM
same,IC50,[35],> 2000 nM
same,IC50,[36]; read-out: IC50,1340 nM
same,IC50,[37],174 nM
same,IC50,[38],> 2000 nM
same,IC50,[39],> 2000 nM
same,IC50,[40],197 nM
same,IC50,[41],> 2000 nM
same,IC50,[42],1560 nM
same,IC50,[43],> 2000 nM
same,IC50,[44],> 2000 nM
same,IC50,[45],> 2000 nM
same,IC50,[46],1580 nM
same,IC50,[47],> 2000 nM
same,IC50,[48],832 nM
Cc1ccc(NC(=O)c2ccc(CN3CCN(C)CC3)cc2)cc1Nc1nccc(-c2cccnc2)n1 [IMATINIB],IC50,[1],> 2000 nM
same,IC50,[2],> 2000 nM
same,IC50,[3],> 2000 nM
same,IC50,[4],> 2000 nM
same,IC50,[5],> 2000 nM
same,IC50,[6],> 2000 nM
same,IC50,[7],> 2000 nM
same,IC50,[8],> 2000 nM
same,IC50,[9],> 2000 nM
same,IC50,[10],> 2000 nM
same,IC50,[12],> 2000 nM
same,IC50,[13],> 2000 nM
same,IC50,[14],> 2000 nM
same,IC50,[15],> 2000 nM
same,IC50,[16],> 2000 nM
same,IC50,[17],> 2000 nM
same,IC50,[18],> 2000 nM
same,IC50,[20],> 2000 nM
same,IC50,[21],> 2000 nM
same,IC50,[22],> 2000 nM
same,IC50,[23],> 2000 nM
same,IC50,[24],> 2000 nM
same,IC50,[25],> 2000 nM
same,IC50,[26],> 2000 nM
same,IC50,[27],> 2000 nM
same,IC50,[28],> 2000 nM
same,IC50,[29],> 2000 nM
same,IC50,[30],> 2000 nM
same,IC50,[31],> 2000 nM
same,IC50,[32],> 2000 nM
same,IC50,[33],> 2000 nM
same,IC50,[34],> 2000 nM
same,IC50,[35],> 2000 nM
same,IC50,[36],> 2000 nM
same,IC50,[37],> 2000 nM
same,IC50,[38],> 2000 nM
same,IC50,[39],> 2000 nM
same,IC50,[40],> 2000 nM
same,IC50,[41],> 2000 nM
same,IC50,[42],> 2000 nM
same,IC50,[43],> 2000 nM
same,IC50,[44],> 2000 nM
same,IC50,[45],> 2000 nM
same,IC50,[46],> 2000 nM
same,IC50,[47],> 2000 nM
same,IC50,[48],> 2000 nM
